Measured values reported in patent US20180008587A1, “THIOHYDANTOIN ANDROGEN RECEPTOR ANTAGONISTS FOR THE TREATMENT OF CANCER” (Jaressen Pharmaceutica NV, priority 2016, published 2018).
Where a chain is given by its changes, count along the chain named. Where two headings read alike, the source gives them in different places.

Key:
Type in all cases: cell-based
[1] = biological target: T1, wild-type Androgen Receptor (AR-wt) (Homo sapiens, UniProt P10275); test: LNCaP-AR-wt ANT reporter assay (ARE firefly luciferase, antagonist mode); settings: for IC50: antagonist mode, 400 pM R-1881 challenge, −Log10(IC50 [Molar]), read-out: LNCaP-AR-wt ANT pIC50 (converted); for Emax: read-out: LNCaP-AR-wt ANT MAX % Inh
T1 construct: expressed in transfected cells; host or cells: LNCaP (LNCaP AR (cs))
T1 sequence (P10275 1-920): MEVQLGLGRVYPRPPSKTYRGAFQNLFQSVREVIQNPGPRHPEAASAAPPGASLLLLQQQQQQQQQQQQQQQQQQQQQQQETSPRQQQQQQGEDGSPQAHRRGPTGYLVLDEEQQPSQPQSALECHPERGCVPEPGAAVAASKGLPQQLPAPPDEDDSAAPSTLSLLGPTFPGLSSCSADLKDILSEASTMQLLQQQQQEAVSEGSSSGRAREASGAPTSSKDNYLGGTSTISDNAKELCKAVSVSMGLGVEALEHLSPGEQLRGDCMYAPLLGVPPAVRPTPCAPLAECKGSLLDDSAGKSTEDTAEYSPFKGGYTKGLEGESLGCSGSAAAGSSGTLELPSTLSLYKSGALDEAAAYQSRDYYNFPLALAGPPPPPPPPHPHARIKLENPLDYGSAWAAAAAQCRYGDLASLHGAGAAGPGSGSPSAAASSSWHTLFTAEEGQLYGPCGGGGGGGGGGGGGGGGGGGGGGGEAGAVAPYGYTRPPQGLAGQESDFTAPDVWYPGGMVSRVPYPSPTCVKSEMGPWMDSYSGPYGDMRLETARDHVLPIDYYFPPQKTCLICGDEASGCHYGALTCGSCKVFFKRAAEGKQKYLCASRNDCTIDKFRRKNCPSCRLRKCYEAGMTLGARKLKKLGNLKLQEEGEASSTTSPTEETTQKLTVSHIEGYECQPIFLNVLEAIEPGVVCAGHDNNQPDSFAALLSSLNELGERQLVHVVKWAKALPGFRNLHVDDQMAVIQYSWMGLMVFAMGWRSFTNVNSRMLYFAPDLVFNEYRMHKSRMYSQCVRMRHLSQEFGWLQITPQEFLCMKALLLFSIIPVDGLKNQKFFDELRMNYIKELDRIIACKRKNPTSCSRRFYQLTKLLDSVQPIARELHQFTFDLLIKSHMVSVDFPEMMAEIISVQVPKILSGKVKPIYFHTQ
Method in brief: (§1)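 Cells: stable LNCaP pools, AR-wt or AR-F876L, in charcoal-stripped serum. Agonist challenge for antagonist mode was 400 pM (WT) and 600 pM (F876L). Luminescence was measured after 20-24 h incubation.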

[2] = biological target: T1, wild-type Androgen Receptor (AR-wt); test: LNCaP-AR-wt AG reporter assay (ARE firefly luciferase, agonist mode); settings: for Emax: read-out: LNCaP-AR-wt AG MAX % Stim
Method in brief: (§2)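 Read-out is luciferase luminescence taken 1 h after Steady-Glo addition, following 20-24 h compound exposure at 37 °C in LNCaP pools stably carrying wild-type or F876L AR. Cells were grown in charcoal-stripped serum. Antagonist wells received agonist at 400 pM (WT) or 600 pM (F876L).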

[3] = biological target: T2, F876L mutant Androgen Receptor (AR-F876L) (Homo sapiens, UniProt P10275, F877L); test: LNCaP-AR-F876L ANT reporter assay (ARE firefly luciferase, antagonist mode); settings: for Emax: read-out: LNCaP-AR-F876L ANT MAX % Inh; for IC50: read-out: LNCaP-AR-F876L ANT pIC50 (converted)
T2 construct: expressed in transfected cells; host or cells: LNCaP (LNCaP F876L)
T2 sequence (P10275 1-920 F877L): T1 sequence (P10275 1-920) with F877L
Method in brief: as §1

[4] = biological target: T2, F876L mutant Androgen Receptor (AR-F876L); test: LNCaP-AR-F876L AG reporter assay (ARE firefly luciferase, agonist mode); settings: for Emax: read-out: LNCaP-AR-F876L AG MAX % Stim
Method in brief: as §2

[5] = maximum % inhibition of R1881 control response over tested concentration range
[6] = agonist mode, −Log10(EC50 [Molar]), read-out: LNCaP-AR-wt AG pEC50 (converted)
[7] = maximum % stimulation (agonist response) over tested concentration range
[8] = agonist mode, −Log10(EC50 [Molar]), read-out: LNCaP-AR-F876L AG pEC50 (converted)

| IC50 [1] | Emax [1, 5] | EC50 [2, 6] | Emax [2, 7] | Emax [3, 5] | IC50 [3] | EC50 [4, 8] | Emax [4, 7] | Compound | Emax [1] | EC50 [2] | Emax [2] | Emax [3] | EC50 [4] | Emax [4] |
| --- | --- | --- | --- | --- | --- | --- | --- | --- | --- | --- | --- | --- | --- | --- |
| 1170 nM | 97.4% | > 15100 nM | 25.3% | 98.2% | 871 nM | > 15100 nM | 3.1% | Cc1cc(N2C(=O)C3(CCC3)N(c3ccc(C(=O)Nc4cncc(F)c4)c(F)c3)C2=S)cnc1C#N [Cpd 113, 4-[6-(6-cyano-5-methyl-3-pyridyl)-5-oxo-7-thioxo-6,8-diazaspiro[3.4]octan-8-yl]-2-fluoro-N-(5-fluoro-3-pyridyl)benzamide] | – | – | – | – | – | – |
| 372 nM | 100% | > 15100 nM | 1.1% | 96.1% | 437 nM | > 15100 nM | 3.4% | Cc1ccc(N2C(=S)N(c3cnc(C#N)c(C(F)(F)F)c3)C(=O)C23CCC3)cc1F [Cpd 115, 5-[8-(3-fluoro-4-methyl-phenyl)-5-oxo-7-thioxo-6,8-diazaspiro[3.4]octan-6-yl]-3-(trifluoromethyl)pyridine-2-carbonitrile] | – | – | – | – | – | – |
| 2570 nM | 95.3% | > 15100 nM | 1.1% | 98.6% | 631 nM | > 15100 nM | 3.5% | Cc1cc(N2C(=O)C3(CCC3)N(c3ccc(OC4CCN(C)CC4)c(F)c3)C2=S)cnc1C#N [Cpd 116, 5-[8-[3-fluoro-4-[(1-methyl-4-piperidyl)oxy]phenyl]-5-oxo-7-thioxo-6,8-diazaspiro[3.4]octan-6-yl]-3-methyl-pyridine-2-carbonitrile] | – | – | – | – | – | – |
| 1260 nM | 100% | > 15100 nM | 0.7% | 96.4% | 288 nM | > 15100 nM | 3.5% | CNC(=O)c1ccc(N2C(=S)N(c3cnc(C#N)c(C)c3)C(=O)C23CCC3)cc1OC [Cpd 117, 4-[6-(6-cyano-5-methyl-3-pyridyl)-5-oxo-7-thioxo-6,8-diazaspiro[3.4]octan-8-yl]-2-methoxy-N-methyl-benzamide] | – | – | – | – | – | – |
| 1100 nM | 101% | > 15100 nM | 0.4% | 99.4% | 158 nM | > 15100 nM | 3.9% | N#Cc1ncc(N2C(=O)C3(CCC3)N(c3ccc(C(=O)NCCCN4CCCC4)c(F)c3)C2=S)cc1C(F)(F)F [Cpd 118, 4-[6-[6-cyano-5-(trifluoromethyl)-3-pyridyl]-5-oxo-7-thioxo-6,8-diazaspiro[3.4]octan-8-yl]-2-fluoro-N-(3-pyrrolidin-1-ylpropyl)benzamide] | – | – | – | – | – | – |
| 112 nM | 97.7% | > 15100 nM | 2.2% | 96% | 158 nM | > 15100 nM | 3.9% | Cc1cc(N2C(=O)C3(CCC3)N(c3ccc(-c4cccnc4C)cc3)C2=S)cnc1C#N [Cpd 119, 3-methyl-5-[8-[4-(2-methyl-3-pyridyl)phenyl]-5-oxo-7-thioxo-6,8-diazaspiro[3.4]octan-6-yl]pyridine-2-carbonitrile] | – | – | – | – | – | – |
| 363 nM | 100% | > 15100 nM | 1.2% | 98.8% | 224 nM | > 15100 nM | 3.9% | N#Cc1ccc(N2C(=S)N(c3cnc(C#N)c(C(F)(F)F)c3)C(=O)C23CCC3)cc1 [Cpd 120, 5-[8-(4-cyanophenyl)-5-oxo-7-thioxo-6,8-diazaspiro[3.4]octan-6-yl]-3-(trifluoromethyl)pyridine-2-carbonitrile] | – | – | – | – | – | – |
| 2750 nM | 93.6% | > 15100 nM | 1.2% | 98.7% | 575 nM | > 15100 nM | 3% | CN1CCN(CCNC(=O)c2ccc(N3C(=S)N(c4cnc(C#N)c(C(F)(F)F)c4)C(=O)C34CCC4)cc2F)CC1 [Cpd 121, 4-[6-[6-cyano-5-(trifluoromethyl)-3-pyridyl]-5-oxo-7-thioxo-6,8-diazaspiro[3.4]octan-8-yl]-2-fluoro-N-[2-(4-methylpiperazin-1-yl)ethyl]benzamide] | – | – | – | – | – | – |
| 302 nM | 99.7% | > 15100 nM | 2.2% | 90.5% | 437 nM | > 15100 nM | 6.2% | CS(=O)(=O)N1CCC(Oc2ccc(N3C(=S)N(c4cnc(C#N)c(C(F)(F)F)c4)C(=O)C34CCC4)cc2)CC1 [Cpd 122, 5-[8-[4-[(1-methylsulfonyl-4-piperidyl)oxy]phenyl]-5-oxo-7-thioxo-6,8-diazaspiro[3.4]octan-6-yl]-3-(trifluoromethyl)pyridine-2-carbonitrile] | – | – | – | – | – | – |

| Compound | IC50 [1] | Emax [1, 5] | EC50 [2, 6] | Emax [2, 7] | Emax [3, 5] | IC50 [3] | EC50 [4, 8] | Emax [4, 7] | Emax [1] | EC50 [2] | Emax [2] | Emax [3] | EC50 [4] | Emax [4] |
| --- | --- | --- | --- | --- | --- | --- | --- | --- | --- | --- | --- | --- | --- | --- |
| Cc1cncc(-c2ccc(N3C(=S)N(c4cnc(C#N)c(C)c4)C(=O)C34CCC4)cc2)c1 [Cpd 114, 3-methyl-5-[8-[4-(5-methyl-3-pyridyl)phenyl]-5-oxo-7-thioxo-6,8-diazaspiro[3.4]octan-6-yl]pyridine-2-carbonitrile] | 240 nM | – | – | – | – | 355 nM | – | – | 98.7% | > 15100 nM | 0.7% | 97.8% | > 15100 nM | 3.3% |
